Usually Kd stands for the equilibrium constant for the complex coming apart. Read a high Kd as a looser complex.

SMILES strings stand for the structures.

For assay [1], the system named is MST-DA-1 (DNA, aptamer) ATAGGAGTCACGACGACCAGAAAAATAATTTAAATTTTCTACCCAATGCTTTTCGCATAATATGTGCGTCTACCTCTTGA
The assay is described as follows: microscale thermophoresis. The settings on record: 150 mM NaCl, 2 mM MgCl2; 50 mM Tris, pH 7.4, room temperature. For orientation: MST reads how a fluorescent partner responds to local heating, with and without ligand.

Assay [2] deals with MST-OA-2 (DNA, aptamer) ATTTGACCATGTCGAGGGAGACGCGCAGTCGCTACCACCT
Briefly: microscale thermophoresis. The following applies: 150 mM NaCl, 2 mM MgCl2; 50 mM Tris, pH 7.4, room temperature.

The test system of assay [3] is FRET-OA-2 (DNA, aptamer) ATTTGACCATGTCGAGGGAGACGCGCAGTCGCTACCACCT
The assay is described as follows: fluorescence (FAM/BHQ-1 FRET) titration. The following applies: 150 mM NaCl, 2 mM MgCl2; 50 mM Tris, pH 7.4, 37 °C, 500 nM aptamer; exact value in Figure 1D.

Assay [4] concerns OA-2 (DNA, aptamer) ATTTGACCATGTCGAGGGAGACGCGCAGTCGCTACCACCT
Briefly: AuNP aggregation colorimetry. The following applies: NaCl added (100 mmol L^−1 stock); 1 μmol L^−1 aptamer, room temperature.

Assay [5] relates to MST-OA-1 (DNA, aptamer) GGTCACCAACAACAGGGAGCGCTACGCGAAGGGTCAATGTGACGTCATGCGGATGTGTGG
The assay is described as follows: microscale thermophoresis. The following applies: 150 mM NaCl, 2 mM MgCl2; 50 mM Tris, pH 7.5, room temperature.

In assay [6] the test system is FRET-OA-1 (DNA, aptamer) GGTCACCAACAACAGGGAGCGCTACGCGAAGGGTCAATGTGACGTCATGCGGATGTGTGG
Briefly: fluorescence (FAM/BHQ-1 FRET) titration. The following applies: 150 mM NaCl, 2 mM MgCl2; 50 mM Tris, pH 7.5, 37 °C, 500 nM aptamer; exact value in Figure 1C.

In assay [7] the test system is APT-mid-BHQ1 (DNA, aptamer, internal BHQ1-dT at 29) ATTTGACCATGTCGAGGGAGACGCGCAGTCGCTACCACCT
The assay is described as follows: strand-displacement fluorescence (duplexed FRET). The following applies: FAM-11nt-C strand displaced; 1 h after OA addition.

In assay [1], `C/C(=C/C=C/[C@@H](C)C(=O)O)[C@H]1CN[C@H](C(=O)O)[C@H]1CC(=O)O` came in with a Kd of 1180 ± 2030 nM. That is a single-digit micromolar value.

For the compound `C=C1[C@@H](O)[C@@H]2O[C@]3(CC[C@H](/C=C/[C@@H](C)[C@@H]4CC(C)=C[C@@]5(O[C@H](C[C@@](C)(O)C(=O)O)CC[C@H]5O)O4)O3)CC[C@H]2O[C@@H]1[C@@H](O)C[C@H](C)[C@H]1O[C@@]2(CCCCO2)CC[C@H]1C`, the equilibrium dissociation constant (Kd) is 257.25 ± 90.25 nM in assay [2], < 800 nM in assay [3], 1260 ± 560 nM in assay [5] and < 800 nM in assay [6]. Also, the binding entry in assay [4] and in assay [7] was “yes” throughout.

The values above are taken from publication PMC11898563 (2025).
